{"source": "patent US20130004590A1", "about": "“ZINC OXIDE/ACID CONTAINING COMPOSITIONS AND METHODS FOR TREATING AND/OR PREVENTING ENZYMATIC IRRITATION” (priority 2011, published 2013)", "key": {"trypsin [1]": {"system": "trypsin", "test": "EnzChek protease assay: trypsin inhibition by mixtures of talc with divalent cation salts", "assay_type": "biochemical", "conditions": "for Hypothetically calculated additive value of salt and Talc, trypsin inhibition activities (%): Table 3, salt alone plus talc alone (8.55%)", "experimental": "The objective of the following experiment was to determine whether and to what extent adding a divalent cation to talc inhibited trypsin activity in an in vitro assay. The inhibition of trypsin-induced cleavage of a fluorescent casein peptide was measured using the EnzChek™ protease assay kit, following manufacturer's instructions (EnzChek™ Protease Assay Kits Product Information, Revised; Molecular Probes, Eugene Oreg.). […] Trypsin working solution (Sigma, St. Louis, Mo., unit/mL) was prepared in digestion buffer provided in the assay kit. Stock solution of BODIPY FL casein (trypsin substrate, mg/mL) was prepared by adding 0.2 mL to the substrate vials (provided in kit), and the final substrate working solution (10 microgram/mL) was prepared by dilution in digestion buffer (pH 7.8). Following incubation of the trypsin, with or without the test materials, with the BODIPY fluorescent casein substrate, at room temperature for one hour, fluorescence was measured (excitation 485 nm/emission 530 nm) using a SpectraMax microtiter plate reader (Molecular Devices Corporation, Sunnyvale, Calif.) and Softmax Pro software (Molecular Devices Corporation). Each experiment was performed in three replicates."}, "trypsin [2]": {"system": "trypsin", "test": "EnzChek protease assay: trypsin inhibition by zinc oxide/acid mixtures and formulations", "assay_type": "biochemical", "conditions": "text b137, on Table 5", "experimental": "Each experiment was performed in three replicates.\nFor preparations, samples were diluted in 1×PBS at 1:10 ratio and subjected to centrifugation at 13,200 rpm for 1 min using Eppendorf Centrifuge (Model 5415D, Eppendorf AG, Hamburg, Germany) to remove the solid formulation ingredients. The supernatants (50 μl) were used for trypsin inhibitory activity analyses as described above. For preparations, samples were diluted in 10, or 20 or 40% ethanol and subjected to centrifugation at 13,200 rpm for 1 min using Eppendorf Centrifuge (Model 5415D, Eppendorf AG, Hamburg, Germany) to remove the solid formulation ingredients. The supernatants (50 μl) were used for trypsin inhibition assay. Possible effects of ethanol solution (10, 20 or 40% ethanol) on trypsin inhibition activity were tested in the same study and found no significant impact.\nFor the above study, the results are an average of three independent experiments, wherein the samples, which were diluted at 1:10 ratio in 1×PBS solutions containing 10%, 20% or 40% ethanol, were tested in triplicates. The results are from an average of all conditions at the same dilution.\nFor the currently available product (i.e., Baby Paste 5.0, Mendelson Pharmaceuticals LLC, Mountainside, N.J.), the results are an average of a single study: sample diluted at 1:10 ratio, in 1×PBS solutions containing 10%, 20% or 40% ethanol, was tested in triplicate. […]"}, "[3]": {"experimental": "The objective of the following experiment was to determine whether and to what extent adding an acid to a formulation containing zinc oxide had on inhibition of trypsin activity in an in vitro assay. The inhibition of trypsin-induced cleavage of a fluorescent casein peptide was measured using the EnzChek™ protease assay kit, following manufacturer's instructions (EnzChek™ Protease Assay Kits Product Information, Revised; Molecular Probes, Eugene Oreg.). Briefly, mixtures of zinc oxide and acid at different concentrations were prepared in 1×PBS (pH 7.4) and their pH was recorded as listed in the Tables 5-8. Trypsin working solution (Sigma, St. Louis, Mo., unit/mL) was prepared in digestion buffer provided in the assay kit. Stock solution of BODIPY FL casein (trypsin substrate, mg/mL) was prepared by adding 0.2 mL to the substrate vials (provided in kit), and the final substrate working solution (10 microgram/mL) was prepared by dilution in digestion buffer (pH 7.8). Following incubation of the trypsin, with or without the test materials (50 μl), with the BODIPY fluorescent casein substrate, at room temperature for one hour, fluorescence was measured (excitation 485 nm/emission 530 nm) using a SpectraMax microtiter plate reader (Molecular Devices Corporation, Sunnyvale, Calif.) and Softmax Pro software (Molecular Devices Corporation). Each experiment was performed in three replicates."}}, "note": "Read-outs that look alike come from different tables or passages of the source.", "data": [{"smiles": "CC(=O)[O-].CC(=O)[O-].O.[Ca+2]", "note": "[Calcium acetate monohydrate]", "values": [{"measurement": "Hypothetically calculated additive value of salt and Talc, trypsin inhibition activities (%)", "setting": "trypsin [1]", "value": 23.86, "unit": "%"}]}, {"smiles": "[Ca+2].[Cl-].[Cl-]", "note": "[Calcium chloride]", "values": [{"measurement": "Hypothetically calculated additive value of salt and Talc, trypsin inhibition activities (%)", "setting": "trypsin [1]", "value": 26.50, "unit": "%"}]}, {"smiles": "O.O.O.O.[Cl][Fe][Cl]", "note": "[Iron (II) chloride tetrahydrate]", "values": [{"measurement": "Hypothetically calculated additive value of salt and Talc, trypsin inhibition activities (%)", "setting": "trypsin [1]", "value": 73.62, "unit": "%"}]}, {"smiles": "CC(=O)[O-].CC(=O)[O-].O.O.O.O.[Mg+2]", "note": "[Magnesium acetate tetrahydrate]", "values": [{"measurement": "Hypothetically calculated additive value of salt and Talc, trypsin inhibition activities (%)", "setting": "trypsin [1]", "value": 9.38, "unit": "%"}]}, {"smiles": "[Cl-].[Cl-].[Mg+2]", "note": "[Magnesium chloride]", "values": [{"measurement": "trypsin inhibitory activity, alone, in words", "setting": "trypsin [1]", "value": "moderate to low levels"}, {"measurement": "Hypothetically calculated additive value of salt and Talc, trypsin inhibition activities (%)", "setting": "trypsin [1]", "value": 13.30, "unit": "%"}]}, {"smiles": "CC(=O)[O-].CC(=O)[O-].[Zn+2]", "note": "[Zinc acetate dihydrate]", "values": [{"measurement": "Hypothetically calculated additive value of salt and Talc, trypsin inhibition activities (%)", "setting": "trypsin [1]", "value": 71.39, "unit": "%"}]}, {"smiles": "[Cl-].[Cl-].[Zn+2]", "note": "[Zinc chloride]", "values": [{"measurement": "Hypothetically calculated additive value of salt and Talc, trypsin inhibition activities (%)", "setting": "trypsin [1]", "value": 89.62, "unit": "%"}]}, {"smiles": "[O]=[Zn]", "note": "[ZnO, zinc oxide]", "values": [{"measurement": "protease activity of zinc oxide, in words", "setting": "trypsin [2]", "value": "minimal protease activity"}, {"measurement": "pH", "setting": "[3]; 0.1% ZnO, 0.01% acetic acid in 1x PBS", "value": 7.28}, {"measurement": "pH", "setting": "[3]; 0.1% ZnO, 0.05% acetic acid in 1x PBS", "value": 6.03}, {"measurement": "pH", "setting": "[3]; 0.1% ZnO, No acetic acid in 1x PBS", "value": 7.61}, {"measurement": "pH", "setting": "[3]; 1% ZnO, 0.01% acetic acid in 1x PBS", "value": 7.85}, {"measurement": "pH", "setting": "[3]; 1% ZnO, 0.05% acetic acid in 1x PBS", "value": 6.08}, {"measurement": "pH", "setting": "[3]; 1% ZnO, No acetic acid in 1x PBS", "value": 8.07}]}, {"smiles": "CC(=O)O", "note": "[acetic acid]", "values": [{"measurement": "pH", "setting": "[3]; No ZnO, 0.01% acetic acid in 1x PBS", "value": 6.84}, {"measurement": "pH", "setting": "[3]; No ZnO, 0.05% acetic acid in 1x PBS", "value": 4.75}]}]}
